This is an account of results in patent US9380788B2, “Package for plant antimicrobial treatment” (priority 2013, dated 2016).

The subject of the data set is pepper plants. It is filed as in vivo. The note with it: plants sprayed with oregano/sesame oil emulsion made with the emulsifier.
As to Triton X 100 [Triton X100], the “Phytotoxicity on pepper plants” value was “phytotoxicity”.

Regarding `CCCCCCCC/C=C\CCCCCCCC(=O)OCCOCC(OCCO)C1OCC(OCCO)C1OCCO` (stereo not shown) [Tween 80], the “Phytotoxicity on pepper plants” value is recorded as “phytotoxicity”.

As to `CCCCCCCCCCCCCCCCCC(=O)[O-].[Na+]` [sodium stearate, Sodium Stearate], the “Phytotoxicity on pepper plants” value is “very vital”.

Take `CCCCCCCCCCCCOS(=O)(=O)[O-].[Na+]` [SDS]: the “Phytotoxicity on pepper plants” value is given as “phytotoxicity”.
